From patent US20240025919A1, “AZA-TETRACYCLIC OXAZEPINE COMPOUNDS AND USES THEREOF” (Genentech, Inc., priority 2022, published 2024)
Where “and” joins values, the source holds several entries; their conditions need not be identical. Equal values may be shown once. Read-outs that look alike come from different tables or passages of the source.

Key:
KRAS G12D = KRAS G12D (Homo sapiens (Human), UniProt P01116, G12D); experiment: KRAS G12D LoEnz Biochemical Assay, BODIPY-GDP Exchange TR-FRET (SOS1-mediated nucleotide exchange); conditions: read-out: KRas (G12D) GDP HTRF IC50
KRAS G12D, sequence (P01116-2 other isoform, or with tags, fused parts or gaps G12D): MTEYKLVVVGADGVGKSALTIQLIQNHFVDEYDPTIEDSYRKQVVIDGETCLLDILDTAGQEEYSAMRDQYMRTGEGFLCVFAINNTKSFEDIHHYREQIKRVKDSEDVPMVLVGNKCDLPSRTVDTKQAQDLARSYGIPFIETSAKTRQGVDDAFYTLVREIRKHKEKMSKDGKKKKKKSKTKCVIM

KRAS WT [1] = target: T1, KRAS WT (Homo sapiens (Human), UniProt P01116); experiment: KRAS WT Biochemical Assay, BODIPY-GDP Exchange TR-FRET (Example 502; 0.06 nM KRAS WT, 15 nM GDP, 300 nM SOS1, 120-minute incubation); conditions: read-out: KRas HTRF IC50
T1 sequence (P01116-2 other isoform, or with tags, fused parts or gaps): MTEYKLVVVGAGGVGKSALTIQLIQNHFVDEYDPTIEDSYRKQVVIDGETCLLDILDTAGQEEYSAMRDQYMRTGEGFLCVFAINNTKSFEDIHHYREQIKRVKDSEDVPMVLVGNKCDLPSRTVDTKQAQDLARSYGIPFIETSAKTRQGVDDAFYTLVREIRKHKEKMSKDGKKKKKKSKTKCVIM
In short: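 Biotin-tagged recombinant KRAS WT (0.06 nM) preloaded with 15 nM GDP and Tb-streptavidin, 10 min RT, then exchange started with 300 nM SOS1 plus 300 nM BODIPY-GDP in HEPES pH 7.5 buffer with MgCl2. TR-FRET 520/490 ratio read after 120 min; normalized to DMSO and full-inhibition control; IC50 from 4-parameter fit.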

[2] = tested on: AsPC-1 (homozygous mutant KRAS G12D human pancreatic cell line); experiment: KRAS 3D-Cell Proliferation Assay, AsPC-1 (CellTiter-Glo 3D, 7 days); assay type: cell-based; conditions: AsPC-1 3D culture, read-out: Prolif AsPC-1 3D ATP IC50
Description: (§1) Example 503: KRAS 3D-Cell Proliferation Assays. Cellular potencies of compounds are assessed by evaluating inhibition of proliferation in 3D cultures of homozygous mutant KRAS G12D human pancreatic cell lines (AsPC-1 and HPAC) as compared to a KRAS wild type human lung adenocarcinoma cell line (PC-9 and/or H1975). Cells are seeded into 384-well black round-bottom, ultra-low attachment assay plates in 50 uL cell growth medium (RPMI-1640 with 10% fetal bovine serum and 2 mM L-glutamine). After overnight incubation at 37° C. and 5% CO2, compounds solubilized in DMSO are added as dilution series to the wells in a total volume of 150 nL (0.3% DMSO final). The cells are incubated for 7 days at 37° C. and 5% CO2. Cell proliferation is quantitated by addition of 40 uL/well of CellTiter-GloO 3D (Promega), and the well contents are mixed 20× at high speed using liquid handling automation workstation (Bravo with 384-well head) and centrifuged at 1500 rpm for 2 minutes to eliminate bubbles. This reagent in combination with mechanical disruption releases the cellular ATP to promote activity in a luciferase-based enzyme/substrate chemiluminescent detection system. After a 30-minute incubation under ambient conditions with shaking and an additional 10 minutes without shaking, the luminescence is read on a plate reader (e.g. EnVision [PerkinElmer]). The results are normalized to percent inhibition based on the following control samples: DMSO (0% inhibition) and 1 uM staurosporine (100% inhibition). The normalized luminescence results are plotted against compound concentration, and the data are fit to a 4-parameter Hill equation to determine the IC50 values.

[3] = tested on: HPAC (homozygous mutant KRAS G12D human pancreatic cell line); experiment: KRAS 3D-Cell Proliferation Assay, HPAC (CellTiter-Glo 3D, 7 days); assay type: cell-based; conditions: HPAC 3D culture, read-out: Prolif HPAC 3D ATP IC50
In short: (§2)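 Cells were grown as 3D cultures in ultra-low attachment plates in RPMI-1640 with 10% FBS and 2 mM glutamine. Compound dilution series (0.3% DMSO final) were added after overnight culture, and plates were incubated for 7 days at 37 °C. CellTiter-Glo 3D luminescence was normalised to DMSO and 1 uM staurosporine, and IC50 was taken from 4-parameter Hill fits.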

[4] = tested on: H1975 (KRAS wild type human lung adenocarcinoma cell line); experiment: KRAS 3D-Cell Proliferation Assay, H1975 (CellTiter-Glo 3D, 7 days); assay type: cell-based; conditions: H1975 3D culture, read-out: Prolif H1975 3D ATP IC50
In short: as §2

KRAS WT [5] = target: T1, KRAS WT; experiment: KRAS WT Biochemical Assay, BODIPY-GDP Exchange TR-FRET (Example 501; 3 nM KRAS WT, 3 nM SOS1, 60-minute incubation)
In short: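 SOS1-mediated exchange assay: 3 nM biotin-KRAS WT with terbium-streptavidin, started with 3 nM SOS1 and 300 nM BODIPY-GDP, HEPES pH 7.5 with MgCl2. TR-FRET (520/490 nm) read after 60 min; normalized to DMSO and full-inhibition control, IC50 from 4-parameter Hill fit.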

[6] = tested on: PC-9 (KRAS wild type human lung adenocarcinoma cell line); experiment: KRAS 3D-Cell Proliferation Assay, PC-9 (CellTiter-Glo 3D, 7 days); assay type: cell-based; conditions: PC-9 3D culture, read-out: Prolif PC9 3D ATP IC50
Description: as §1

Row | Structure (SMILES) | IC50 (KRAS G12D) | IC50 (KRAS WT [1]) | IC50 ([2]; Homo sapiens, ASPC1, 168 h) | IC50 ([3]; Homo sapiens, HPAC, 168 h) | IC50 ([4]; Homo sapiens, NCI-H1975, 168 h) | IC50 [2] | IC50 [3] | IC50 [4] | IC50 (KRAS WT [5]; read-out: KRas HTRF IC50) | IC50 (KRAS WT [5]; read-out: KRas(wt) GDP HTRF IC50) | IC50 [6]
1 | Cc1c(F)c(N)cc(-c2nc3c4c(nc(OC[C@]5(CN6CC7(COC7)C6)CC5(F)F)nc4c2F)N2C[C@H]4CC[C@H](N4)[C@H]2[C@H](C)O3)c1C(F)(F)F (mixture of isomers) [165 a, 5-((5S,5aS,6S,9R)-12-((1-((2-Oxa-6-azaspiro[3.3]heptan-6-yl)methyl)-2,2-difluorocyclopropyl)methoxy)-1-fluoro-5-methyl-5a,6,7,8,9,10-hexahydro-5H-4-oxa-3,10a,11,13,14-pentaaza[6,9]methanonaphtho[1,8-ab]heptalen-2-yl)-2-fluoro-3-methyl-4-(trifluoromethyl)aniline] | 0.08 nM | 1.14 nM | 0.6 nM | 0.63 nM | 374 nM |  |  |  |  |  | 
2 | Cc1c(F)c(N)cc(-c2nc3c4c(nc(OC[C@]5(CN6CC7(COC7)C6)CC5(F)F)nc4c2F)N2C[C@H]4CC[C@H](N4)[C@H]2[C@H](C)O3)c1C(F)(F)F (stereo in doubt) [165 c, 5-((5S,5aS,6S,9R)-12-((1-((2-Oxa-6-azaspiro[3.3]heptan-6-yl)methyl)-2,2-difluorocyclopropyl)methoxy)-1-fluoro-5-methyl-5a,6,7,8,9,10-hexahydro-5H-4-oxa-3,10a,11,13,14-pentaaza[6,9]methanonaphtho[1,8-ab]heptalen-2-yl)-2-fluoro-3-methyl-4-(trifluoromethyl)aniline] | 0.09 nM | 2.19 nM |  |  |  | 1.1 nM | 1.09 nM | 481 nM |  |  | 
3 | Cc1c(F)c(N)cc(-c2nc3c4c(nc(OC[C@]5(CN6CC7(COC7)C6)CC5(F)F)nc4c2F)N2C[C@H]4CC[C@H](N4)[C@H]2[C@H](C(F)(F)F)O3)c1C(F)(F)F (stereo in doubt) [255 b, 5-((5R,5aS,6S,9R)-12-(((R)-1-((2-oxa-6-azaspiro[3.3]heptan-6-yl)methyl)-2,2-difluorocyclopropyl)methoxy)-1-fluoro-5-(trifluoromethyl)-5a,6,7,8,9,10-hexahydro-5H-4-oxa-3,10a,11,13,14-pentaaza[6,9]methanonaphtho[1,8-ab]heptalen-2-yl)-2-fluoro-3-methyl-4-(trifluoromethyl)aniline] | 0.27 nM |  |  |  |  | 4.7 nM | 4.21 nM | 308 nM | 1.17 nM |  | 
4 | Cc1c(F)c(N)cc(-c2nc3c4c(nc(OC[C@]56CCC[C@@H]5N(C)CCC6)nc4c2F)N2C[C@H]4CC[C@H](N4)[C@H]2[C@H](C)O3)c1C(F)(F)F (single isomer, unassigned) [126 (isomer 1)] | 0.1 nM | 0.42 nM | 0.6 nM | 0.51 nM | 770 nM |  |  |  |  |  | 
5 | CN1CCC2COc3nc(-c4cc(O)cc5cccc(F)c45)c(F)c4nc(OC[C@@]56CCCN5C[C@H](F)C6)nc(c34)N2CC1 (single isomer, unassigned) [Compound 49] |  |  | 20000 nM |  |  |  |  |  |  | 561 nM and 331 nM | 4240 nM
6 | Cc1c(F)c(N)cc(-c2nc3c4c(nc(OC[C@]5(CN6CC7(COC7)C6)CC5(F)F)nc4c2F)N2C[C@H]4CC[C@H](N4)[C@H]2[C@H](C)O3)c1C(F)(F)F (single isomer, unassigned) [165 b] | 0.1 nM | 1.43 nM |  |  |  | 0.849 nM | 0.66 nM | 499 nM |  |  | 
7 | Cc1c(F)c(N)cc(-c2nc3c4c(nc(OC[C@]5(CN6CC7(COC7)C6)CC5(F)F)nc4c2F)N2C[C@H]4CC[C@H](N4)[C@H]2[C@H](C(F)(F)F)O3)c1C(F)(F)F (stereo in doubt) [255 a, 5-((5R,5aS,6S,9R)-12-(((R)-1-((2-oxa-6-azaspiro[3.3]heptan-6-yl)methyl)-2,2-difluorocyclopropyl)methoxy)-1-fluoro-5-(trifluoromethyl)-5a,6,7,8,9,10-hexahydro-5H-4-oxa-3,10a,11,13,14-pentaaza[6,9]methanonaphtho[1,8-ab]heptalen-2-yl)-2-fluoro-3-methyl-4-(trifluoromethyl)aniline] | 0.41 nM |  | 6.6 nM |  |  |  | 1.66 nM | 120 nM | 1.39 nM |  | 
